How the values were obtained:
hOCT2 = target: T1, hOCT2 (Homo sapiens, UniProt O15244); experiment: Inhibition of hOCT2-mediated metformin uptake, stably transfected 293 cells; type: cell-based; conditions: substrate 5 µM metformin, median (95% CI)
T1 construct: expressed in transfected cells; host or cells: HEK-293 (293) cells, pEBTetD plasmid, doxycycline-induced
T1 sequence (O15244 1-555): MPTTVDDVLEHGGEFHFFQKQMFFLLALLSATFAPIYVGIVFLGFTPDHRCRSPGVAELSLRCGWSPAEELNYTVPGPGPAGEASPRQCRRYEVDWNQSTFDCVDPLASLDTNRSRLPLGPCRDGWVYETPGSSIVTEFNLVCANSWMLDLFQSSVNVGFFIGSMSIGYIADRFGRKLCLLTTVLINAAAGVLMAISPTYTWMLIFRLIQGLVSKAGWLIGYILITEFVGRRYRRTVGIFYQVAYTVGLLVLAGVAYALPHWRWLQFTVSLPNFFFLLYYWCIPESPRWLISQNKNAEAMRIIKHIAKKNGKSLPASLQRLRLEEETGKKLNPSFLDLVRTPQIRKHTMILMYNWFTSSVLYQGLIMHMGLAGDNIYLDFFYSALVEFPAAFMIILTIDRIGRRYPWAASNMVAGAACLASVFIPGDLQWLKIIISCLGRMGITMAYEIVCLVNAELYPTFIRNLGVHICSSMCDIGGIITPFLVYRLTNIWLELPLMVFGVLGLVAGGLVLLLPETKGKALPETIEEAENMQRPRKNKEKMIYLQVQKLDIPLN
Excerpt: (§1) We characterized the inhibitory potential of iohexol on major drug transporters recommended by regulatory agencies, which were previously assessed in a clinical transporter phenotyping cocktail study. These transporters include hOAT1, hOAT3, hOCT1, hOCT2, hMATE1, hMATE2K, human organic anion transporter polypeptides (hOATP)1B1, hOATP1B3, and human multidrug resistance protein (hMDR)1. Additionally, we investigated whether iohexol is a substrate for any of the renal transporters among these, including hOAT1/3, hOCT1/2, and hMATE1/2K. Cell‐based uptake assays were used to assess the activities of hOAT1/3, hOCT1/2, hMATE1/2K, and hOATP1B1/1B3. Inside‐out membrane vesicle uptake assays were used to evaluate the activity of hMDR1.
(§2) To determine the maximal inhibitory potential of iohexol, intracellular accumulation of a standard substrate was measured with and without the clinically relevant highest concentrations of iohexol. Control inhibitors were tested in each experiment.
(§3) In all subsequent in vitro studies, control experiments were conducted to validate the results. These included positive controls for substrates and inhibitors, as well as cells either without transporter expression or transfected with an empty vector, and control vesicles. Each condition, including cells or vesicles with the transporter and their respective controls, was analyzed in at least three replicates. For detailed information on materials, methods, and data analysis techniques used, refer to the Supporting Information. […]
(§4) R version 4.2.1 (R Foundation for Statistical Computing, Vienna, Austria) was used for statistical evaluations and data visualization. The data analysis approach for the in vitro study was detailed by Hsin CH et al..^1 In brief, for transport assays, the initial uptake rate was calculated by normalizing the substrate concentration to both the protein concentration and the incubation time for each dish or well. The transporter-mediated uptake rate (net uptake) was determined by performing an element-wise subtraction of uptake rates from different conditions. […]

hOAT3 = target: T2, hOAT3 (Homo sapiens, UniProt Q8TCC7); experiment: Inhibition of hOAT3-mediated E3S uptake, stably transfected 293 cells; type: cell-based; conditions: substrate 3 µM E3S, median (95% CI)
T2 construct: expressed in transfected cells; host or cells: HEK-293 (293) cells, pEBTetD plasmid, doxycycline-induced
T2 sequence (Q8TCC7 1-542): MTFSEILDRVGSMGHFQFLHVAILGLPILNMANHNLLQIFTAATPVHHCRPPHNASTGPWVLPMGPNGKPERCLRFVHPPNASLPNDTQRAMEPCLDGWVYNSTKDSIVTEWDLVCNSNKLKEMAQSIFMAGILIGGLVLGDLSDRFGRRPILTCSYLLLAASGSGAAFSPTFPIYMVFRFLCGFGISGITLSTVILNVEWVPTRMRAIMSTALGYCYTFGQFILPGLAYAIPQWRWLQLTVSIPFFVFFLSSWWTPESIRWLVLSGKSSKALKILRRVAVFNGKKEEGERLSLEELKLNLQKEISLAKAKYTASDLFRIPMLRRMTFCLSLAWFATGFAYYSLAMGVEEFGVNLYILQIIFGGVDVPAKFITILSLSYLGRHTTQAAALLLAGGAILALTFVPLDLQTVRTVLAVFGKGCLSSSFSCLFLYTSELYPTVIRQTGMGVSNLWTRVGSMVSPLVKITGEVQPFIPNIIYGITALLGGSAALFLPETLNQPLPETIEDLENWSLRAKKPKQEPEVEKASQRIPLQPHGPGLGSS
Excerpt: as §1, §2, §3, §4

[1] = HEK293, 1 mM iohexol, read-out: Inhibitory effect (% reduction of specific activity)
[2] = HEK293, 20 mM iohexol, read-out: Inhibitory effect (% reduction of specific activity)

Q: What does the source list for `CC(=O)N(CC(O)CO)c1c(I)c(C(=O)NCC(O)CO)c(I)c(C(=O)NCC(O)CO)c1I` (stereo not drawn) [iohexol]?
A: Inhibitory effect (% reduction of specific activity) (hOCT2; 20 mM iohexol): no notable inhibitory effects; inhibition at 1000 µM (hOCT2; [1]): -13%; inhibition at 20000 µM (hOCT2; [2]): -23%; Inhibitory effect (% reduction of specific activity) (hOAT3; 20 mM iohexol): no notable inhibitory effects; inhibition at 1000 µM (hOAT3; [1]): -4%; inhibition at 20000 µM (hOAT3; [2]): -3.5%

Reference: article PMC11788587, “Validating Low‐Dose Iohexol as a Marker for Glomerular Filtration Rate by In Vitro and In Vivo Studies” (Clinical and Translational Science, 2025)
